The record followed here is US20230149324A1, “COMPOSITIONS COMPRISING THYMOL AND AMINO ACIDS FOR USE IN THE TREATMENT OF INFLAMMATORY OR FUNCTIONAL INTESTINAL DISORDERS” (VETAGRO INTERNATIONAL S.R.L., priority 2020, published 2023).

SMILES strings stand for the structures.

One data set deals with FAAH mRNA. Description: Gene expression of ECS enzyme FAAH in duodenal and ileal mucosa of weaned piglets fed thymol (real-time PCR). The format is in vivo, pig. As to the method: (§1) At the end of the study, 8 animals from each treatment group were sacrificed, samples were collected, and analysed. Duodenal and ileal mucosal scrapings were collected. The duodenum and ileum were longitudinally cut to expose the mucosa, washed with a phosphate-buffered saline solution to remove mucus and digesta, then scraped gently, packed, immediately frozen in liquid nitrogen and stored at -80° C. until the analyses of gene and protein expression. Gene expression was analysed using the method reported by […] et al. [The Journal of Nutrition. 2011; 141:2139-45]. […] The RNA yield and quality were determined spectrophotometrically by measuring the absorbance at 260 and 280 nm (A260 and A280 nm, respectively) (Microvolume Mode with SmartPath® Technology, Denovix). […] The average threshold cycle (CT) was determined for each gene of interest, and the geometric average was calculated for HK by assuming that CT is the number of cycles required to reach a fixed arbitrary threshold. Delta CT was calculated, then a modification of the 2^-ΔΔCT method [Livak K J, et al., Methods 2001; 25:402-8] was used to analyse the relative expression (fold changes), which was calculated relative to the control group. […] Animals were blocked in a completely randomised design and data were analysed using GraphPad Prism® software (GraphPad Software, Inc., La Jolla, Calif., USA). […]
For orientation: Real-time PCR tracks product formation cycle by cycle.

The subject of the next data set is CB1 mRNA. Kind of data set: Gene expression of cannabinoid receptor CB1 in duodenal and ileal mucosa of weaned piglets fed thymol (real-time PCR). The format is in vivo, pig. Particulars: d14, compared to the control group; for CB1 mRNA level, ileum: P=0.0054. As to the method:
(§2) At the end of the study, 8 animals from each treatment group were sacrificed, samples were collected, and analysed. Duodenal and ileal mucosal scrapings were collected. The duodenum and ileum were longitudinally cut to expose the mucosa, washed with a phosphate-buffered saline solution to remove mucus and digesta, then scraped gently, packed, immediately frozen in liquid nitrogen and stored at -80° C. until the analyses of gene and protein expression. Gene expression was analysed using the method reported by […] et al. [The Journal of Nutrition. 2011; 141:2139-45]. Duodenal and ileal scraping samples obtained on d14 of the study were disrupted by grinding them in liquid nitrogen with mortar and pestle, and then homogenised using a TissueLyser (Qiagen, Hilden, Germany). Total RNA was isolated using a NucleoSpin® RNA Kit (Macherey-Nagel, Duren, Germany) according to the manufacturer's instructions. Genomic DNA contamination was removed by treating the samples with the deoxyribonuclease supplied in the extraction kit ([…], RNase-free; Macherey-Nagel). The RNA yield and quality were determined spectrophotometrically by measuring the absorbance at 260 and 280 nm (A260 and A280 nm, respectively) (Microvolume Mode with SmartPath® Technology, Denovix). […] The average threshold cycle (CT) was determined for each gene of interest, and the geometric average was calculated for HK by assuming that CT is the number of cycles required to reach a fixed arbitrary threshold. Delta CT was calculated, then a modification of the 2^-ΔΔCT method [Livak K J, et al., Methods 2001; 25:402-8] was used to analyse the relative expression (fold changes), which was calculated relative to the control group. […] Animals were blocked in a completely randomised design and data were analysed using GraphPad Prism® software (GraphPad Software, Inc., La Jolla, Calif., USA). Data were analysed using one-way ANOVA followed by Tukey's post hoc test to detect differences among treatments. […]

Data set [1] deals with OR1G1 (Olfactory receptor 1G1) mRNA. Kind of data set: Gene expression of gut chemosensing marker OR1G1 in duodenal and ileal mucosa of weaned piglets fed thymol (real-time PCR). Particulars: d14, compared to the control group. The format is in vivo, pig. As to the method:
as §1

The subject of the next data set is CB2 mRNA. Description: Gene expression of cannabinoid receptor CB2 in duodenal and ileal mucosa of weaned piglets fed thymol (real-time PCR). The format is in vivo, pig. To be noted: d14, compared to the control group; for CB2 mRNA level, duodenum: P=0.004; for CB2 mRNA level, ileum: P=0.0162. How it is done: as §2, with “Denovix). One microgram of RNA was reverse transcribed using the iScript cDNA Synthesis Kit (Bio-Rad Laboratories Inc., Hercules, Calif., USA) according to the manufacturer's instructions. Real-time PCR was performed using an iCycler Thermal Cycler system and SybrGreen Supermix (Bio-Rad Laboratories Inc.). The thermocycling protocol provided for an initial denaturation step for 1 minute and 30 seconds at 95° C., followed by 40 denaturation cycles at 95° C. for 15 seconds, and 30 seconds of annealing and extension at 60° C. After amplification, a melt curve analysis was performed for all samples, with slow heating from 55° C. to 95° C. at a rate of 0.5° C./s to validate the absence of non-specific products.” for “Denovix).”

The next data set relates to TRPV1 mRNA. Description: Gene expression of gut chemosensing marker TRPV1 in duodenal and ileal mucosa of weaned piglets fed thymol (real-time PCR). The format is in vivo, pig. Particulars: for TRPV1 mRNA level, ileum: d14, compared to the control group, P=0.0183. As to the method: as §2
For data set [2] the following is noted: piglets, 14-day experiment, up to 510 mg thymol/kg feed. As to the method: […] piglets (Duroc—Large White) weaned at 28 days of age and with a body weight (BW) of 7.71±1.00 kg were divided into 40 pens (4 piglets per pen, castrated males and females were placed in separate pens) and randomly assigned to one of the following experimental groups (n=32): control group fed with the basal diet (T1), a group fed with the basal diet supplemented with 25.5 mg of thymol/kg feed (T2), a group fed with the basal diet supplemented with 51 mg of thymol/kg feed (T3), a group fed with the basal diet supplemented with 153 mg of thymol/kg feed (T4) and a group fed with the basal diet supplemented with 510 mg of thymol/kg feed (T5). Thymol was provided in a form embedded (microencapsulated) in a lipid matrix (Vetagro SpA, Reggio Emilia, Italy). Concentrations of thymol were selected to meet or exceed the upper limit of inclusion in food and feed established by the European Agency for the Evaluation of Medicinal Products and for the feed. […] The health condition of the animals was monitored during the study. […] Growth parameters, such as FI, ADFI, ADG and F:G (FI—feed intake; ADFI—Average daily feed intake; ADG—Average daily gain; F:G—Feed to gain ratio), were measured in the animals housed in each pen on day 14 (d14) of the experiment.

The mark [3] stands for this setting: group T4, 153 mg of thymol/kg feed.
[4] abbreviates: group T5, 510 mg of thymol/kg feed.

As for `Cc1ccc(C(C)C)c(O)c1` [thymol], in the data set with FAAH mRNA (group T4, 153 mg of thymol/kg feed, d14, compared to the control group, P=0.0028), the “FAAH mRNA level, ileum” value was “significantly increased”. The “FAAH mRNA level, duodenum” value in the data set on FAAH mRNA (thymol groups T2-T5 (25.5-510 mg/kg feed), d14) is given as “Differences in FAAH mRNA levels were not observed”. Moreover, the “CB1 mRNA level, ileum” value in the data set with CB1 mRNA (setting [3]) and in the data set on CB1 mRNA (setting [4]) was “significantly increased” in each case. Moreover, the “CB1 mRNA level, duodenum” value in the data set on CB1 mRNA (group T5, 510 mg of thymol/kg feed, P=0.0209) is on record as “significantly increased”. In data set [1] (group T4, 153 mg thymol/kg feed, P=0.0235), the “OR1G1 mRNA level, ileum” value is recorded as “expressed at higher levels”. Also, the “OR1G1 mRNA level, duodenum” value in data set [1] (group T5, 510 mg thymol/kg feed, P=0.0210) is recorded as “expressed at higher levels”. Moreover, the “CB2 mRNA level, duodenum” value in the data set on CB2 mRNA (setting [3]) and in the data set on CB2 mRNA (setting [4]) was “Significantly increased” each time. Also, the “CB2 mRNA level, ileum” value in the data set with CB2 mRNA (setting [3]) and in the data set with CB2 mRNA (setting [4]) was “Significantly increased” each time. The “TRPV1 mRNA level, ileum” value in the data set with TRPV1 mRNA (group T4, 153 mg thymol/kg feed) was “increased”; in the data set on TRPV1 mRNA (group T5, 510 mg thymol/kg feed) it was “increased”. Moreover, the “TRPV1 mRNA level, duodenum” value in the data set on TRPV1 mRNA (group T5, 510 mg thymol/kg of feed, d14, P=0.0382) is “increased”. For the same compound, the mortality entry in data set [2] is listed as “no mortality was recorded”.
